Measured values: ChEMBL document CHEMBL4020728 (Bioorg Med Chem, 2017)

Columns and labels:
[1] = molecular target: Carbonic anhydrase 2 (Homo sapiens, UniProt P00918); assay: Inhibition of recombinant human carbonic anhydrase-2 assessed as reduction in CO2 hydration preincubated for 10 mins measured for 5 to 10 secs by stopped flow assay
[2] = molecular target: Carbonic anhydrase 9 (Homo sapiens, UniProt Q16790)
Description: Inhibition of recombinant human carbonic anhydrase-9 assessed as reduction in CO2 hydration preincubated for 10 mins measured for 5 to 10 secs by stopped flow assay

[3] = molecular target: Carbonic anhydrase 1 (Homo sapiens, UniProt P00915); assay: Inhibition of recombinant human carbonic anhydrase-1 assessed as reduction in CO2 hydration preincubated for 10 mins measured for 5 to 10 secs by stopped flow assay
Carbonic anhydrase 1, sequence (P00915 whole entry): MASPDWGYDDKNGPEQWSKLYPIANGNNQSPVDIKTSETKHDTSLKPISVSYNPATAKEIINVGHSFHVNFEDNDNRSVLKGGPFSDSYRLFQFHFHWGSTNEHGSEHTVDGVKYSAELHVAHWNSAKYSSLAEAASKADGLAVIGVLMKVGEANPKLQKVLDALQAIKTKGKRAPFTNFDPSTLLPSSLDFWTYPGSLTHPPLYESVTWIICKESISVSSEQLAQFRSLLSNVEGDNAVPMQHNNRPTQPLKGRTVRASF

[4] = molecular target: Carbonic anhydrase 12 (Homo sapiens, UniProt O43570); assay: Inhibition of recombinant human carbonic anhydrase-12 assessed as reduction in CO2 hydration preincubated for 10 mins measured for 5 to 10 secs by stopped flow assay
Carbonic anhydrase 12, sequence (O43570 whole entry): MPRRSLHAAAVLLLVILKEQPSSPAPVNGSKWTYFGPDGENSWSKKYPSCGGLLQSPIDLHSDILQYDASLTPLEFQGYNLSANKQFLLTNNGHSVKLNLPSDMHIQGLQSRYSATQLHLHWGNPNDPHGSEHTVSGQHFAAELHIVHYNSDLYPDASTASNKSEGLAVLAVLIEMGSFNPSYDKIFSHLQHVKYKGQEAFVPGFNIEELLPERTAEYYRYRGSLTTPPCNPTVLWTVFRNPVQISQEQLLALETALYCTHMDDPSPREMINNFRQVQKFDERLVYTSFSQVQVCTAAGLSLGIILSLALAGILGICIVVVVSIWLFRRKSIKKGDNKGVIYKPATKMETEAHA

Row | Compound | Ki [1] [nM] | Ki [2] [nM] | Ki [3] [nM] | Ki [4] [nM]
1 | CC#CCN1C(=O)c2ccccc2S1(=O)=O | > 10000 | 563 | > 10000 | 
2 | O=C(O)c1ccccc1S(=O)(=O)NCc1ccc(Br)cc1 |  | 277 | > 10000 | 
3 | CCCCCNS(=O)(=O)c1ccccc1C(=O)O | > 10000 | 392 | > 10000 | 
4 | CCCN1C(=O)c2ccccc2S1(=O)=O | > 10000 | 209 | > 10000 | 
5 | CCCNS(=O)(=O)c1ccccc1C(=O)O | > 10000 | 481 | > 10000 | 
6 | O=C(O)c1ccccc1S(=O)(=O)NCc1ccccc1 |  | 342 | > 10000 | 
7 | O=C1c2ccccc2S(=O)(=O)N1CCc1ccccc1 | > 10000 | 76.1 | > 10000 | 10.4
8 | CCN1C(=O)c2ccccc2S1(=O)=O | > 10000 | 236 | > 10000 | 
9 | CC#CCNS(=O)(=O)c1ccccc1C(=O)O | > 10000 | 250 | > 10000 | 
10 | CCCCNS(=O)(=O)c1ccccc1C(=O)O | > 10000 | 436 | > 10000 | 
11 | CCCCCN1C(=O)c2ccccc2S1(=O)=O | > 10000 | 102 | > 10000 | 34
12 | O=C1c2ccccc2S(=O)(=O)N1Cc1ccccc1 | > 10000 | 89.2 | > 10000 | 
13 | CCCCN1C(=O)c2ccccc2S1(=O)=O | > 10000 | 164 | > 10000 | 
